The results in this text go back to patent publication US9636307B2, “Oral pharmaceutical composition comprising taste-masked N-acetylcysteine” (HERMES ARZNEIMITTEL GMBH, priority 2013, dated 2017).

Series [1] is described as follows: Stability testing of N-acetylcysteine by headspace gas chromatography. Type of series: physicochemical.
Series [2] is described as follows: Decomposition during processing of the material (sulphurous smell). The format is physicochemical. The following applies: between about 40 and 48° C. compared to working at above 50° C.; evident by reduced sulphurous smell.

Structures are written as SMILES.

For the compound `CC(=O)N[C@@H](CS)C(=O)O` [N-acetylcysteine, N-acetyl-L-cysteine], the “sulphur species detectable by headspace gas chromatography” value in series [1] (sample subjected to 60° C. for 2 hours) was “two sulphurous species, acetyl mercaptane and s-ethyl ethanthioate, were detected”; in series [1] (sample treated at 40° C. for 2 hours) it was “no sulphur species are detectable”. For the same compound, the “decomposition of N-acetylcysteine” value in series [2] is recorded as “notably suppressed”.
